# Tested on: adults with nonalcoholic fatty liver disease (NAFLD)/presumed nonalcoholic steatohepatitis (NASH)
# Test: 52-week Phase 3 trial (Example 1): sex hormone levels
# Assay type: in vivo, human
# Settings: Week 52
# Method: A 52-week randomized, double-blind, placebo-controlled Phase 3 trial was conducted to evaluate the safety and effect of resmetirom, an oral, once-daily, liver-targeted thyroid hormone receptor-β selective agonist, on multiple biomarkers in adults with nonalcoholic fatty liver disease (NAFLD)/presumed nonalcoholic steatohepatitis (NASH). Patients were randomized to three double-blind arms (100 mg resmetirom, 80 mg resmetirom, or placebo) or one open-label arm (100 mg resmetirom). Common concomitant medications across the 4 arms were antidiabetes drugs (such as glucagon-like peptide-1 receptor agonists (GLP-1 RAs), metformin, pioglitazone, and sodium/glucose cotransporter-2 inhibitors (SGLT2i)) and drugs to manage dyslipidemia (statins).
# Sex hormone levels after 52 weeks of resmetirom treatment are shown in Table A. Thyroid hormone levels after 52 weeks of resmetirom treatment are reported in Table B.
# [1] = Resmetirom 80 mg DB vs Placebo DB
# [2] = Resmetirom 100 mg DB vs Placebo DB
compound,measurement,setting,value
"CC(C)c1cc(Oc2c(Cl)cc(-n3nc(C#N)c(=O)[nH]c3=O)cc2Cl)n[nH]c1=O [Resmetirom, 2-[3,5-dichloro-4-[(6-oxo-5-propan-2-yl-1H-pyridazin-3-yl)oxy]phenyl]-3,5-dioxo-1,2,4-triazine-6-carbonitrile]",LH (male) LSM Difference,[1],0.4 IU/L
same,SHBG (female) LSM Difference in % CFB,[1],119.5%
same,SHBG (female) LSM Difference in CFB,[1],39.9 nmol/L
same,SHBG (male) LSM Difference in % CFB,[1],69.7%
same,SHBG (male) LSM Difference in CFB,[1],24.5 (3.9) nmol/L
same,SHBG LSM Difference in % CFB,[1],96.0%
same,SHBG LSM Difference in CFB,[1],32.1 nmol/L
same,Testosterone (female) LSM Difference,[1],0.1 µg/L
same,Testosterone (male) LSM Difference,[1],1.5 µg/L
same,Estradiol (female) LSM CFB,Resmetirom 80 mg DB,5.0 ng/L
same,Estradiol (male) LSM CFB,Resmetirom 80 mg DB,3.3 ng/L
same,FSH (female) LSM CFB,Resmetirom 80 mg DB,0.9 IU/L
same,FSH (male) LSM CFB,Resmetirom 80 mg DB,0.3 IU/L
same,Free testosterone (female) LSM CFB,Resmetirom 80 mg DB,0.0004 µg/L
same,Free testosterone (male) LSM CFB,Resmetirom 80 mg DB,0.0077 µg/L
same,LH (female) LSM CFB,Resmetirom 80 mg DB,0.8 IU/L
same,LH (male) LSM CFB,Resmetirom 80 mg DB,0.4 IU/L
same,SHBG (female) LSM % CFB,Resmetirom 80 mg DB,133.0%
same,SHBG (female) LSM CFB,Resmetirom 80 mg DB,43.3 nmol/L
same,SHBG (male) LSM % CFB,Resmetirom 80 mg DB,67.1%
same,SHBG (male) LSM CFB,Resmetirom 80 mg DB,21.9 nmol/L
same,SHBG LSM % CFB,Resmetirom 80 mg DB,99.6%
same,SHBG LSM CFB,Resmetirom 80 mg DB,32.7 nmol/L
same,Testosterone (female) LSM CFB,Resmetirom 80 mg DB,0.1 µg/L
same,Testosterone (male) LSM CFB,Resmetirom 80 mg DB,1.4 µg/L
same,Estradiol (female) LSM Difference,[2],9.5 ng/L
same,Estradiol (male) LSM Difference,[2],10.4 ng/L
same,FSH (female) LSM Difference,[2],−0.4 IU/L
same,FSH (male) LSM Difference,[2],0.5 IU/L
same,Free testosterone (female) LSM Difference,[2],-0.0006 µg/L
same,Free testosterone (male) LSM Difference,[2],0.0029 µg/L
same,LH (female) LSM Difference,[2],−0.5 IU/L
same,LH (male) LSM Difference,[2],0.8 IU/L
same,SHBG (female) LSM Difference in % CFB,[2],184.0%
same,SHBG (female) LSM Difference in CFB,[2],61.8 nmol/L
same,SHBG (male) LSM Difference in % CFB,[2],125.5%
same,SHBG (male) LSM Difference in CFB,[2],41.7 (3.8) nmol/L
same,SHBG LSM Difference in % CFB,[2],157.5%
same,SHBG LSM Difference in CFB,[2],52.4 nmol/L
same,Testosterone (female) LSM Difference,[2],0.1 µg/L
same,Testosterone (male) LSM Difference,[2],2.1 µg/L
same,Estradiol (female) LSM CFB,Resmetirom 100 mg DB,7.5 ng/L
same,Estradiol (male) LSM CFB,Resmetirom 100 mg DB,8.9 ng/L
same,FSH (female) LSM CFB,Resmetirom 100 mg DB,1.6 IU/L
same,FSH (male) LSM CFB,Resmetirom 100 mg DB,0.6 IU/L
same,Free testosterone (female) LSM CFB,Resmetirom 100 mg DB,-0.0003 µg/L
same,Free testosterone (male) LSM CFB,Resmetirom 100 mg DB,-0.0009 µg/L
same,LH (female) LSM CFB,Resmetirom 100 mg DB,1.2 IU/L
same,LH (male) LSM CFB,Resmetirom 100 mg DB,0.9 IU/L
same,SHBG (female) LSM % CFB,Resmetirom 100 mg DB,197.6%
same,SHBG (female) LSM CFB,Resmetirom 100 mg DB,65.3 nmol/L
same,SHBG (male) LSM % CFB,Resmetirom 100 mg DB,122.9%
same,SHBG (male) LSM CFB,Resmetirom 100 mg DB,39.2 nmol/L
same,SHBG LSM % CFB,Resmetirom 100 mg DB,161.1%
same,SHBG LSM CFB,Resmetirom 100 mg DB,53.0 nmol/L
same,Testosterone (female) LSM CFB,Resmetirom 100 mg DB,0.1 µg/L
same,Testosterone (male) LSM CFB,Resmetirom 100 mg DB,2.0 µg/L
same,Estradiol (female) LSM CFB,Resmetirom 100 mg OL,11.0 ng/L
same,Estradiol (male) LSM CFB,Resmetirom 100 mg OL,11.7 ng/L
same,FSH (female) LSM CFB,Resmetirom 100 mg OL,1.3 IU/L
same,FSH (male) LSM CFB,Resmetirom 100 mg OL,0.6 IU/L
same,Free testosterone (female) LSM CFB,Resmetirom 100 mg OL,-0.0006 µg/L
same,Free testosterone (male) LSM CFB,Resmetirom 100 mg OL,0.024 µg/L
same,LH (female) LSM CFB,Resmetirom 100 mg OL,−0.0 IU/L
same,LH (male) LSM CFB,Resmetirom 100 mg OL,0.3 IU/L
same,SHBG (female) LSM % CFB,Resmetirom 100 mg OL,199.3%
same,SHBG (female) LSM CFB,Resmetirom 100 mg OL,68.6 nmol/L
same,SHBG (male) LSM % CFB,Resmetirom 100 mg OL,156.0%
same,SHBG (male) LSM CFB,Resmetirom 100 mg OL,44.7 nmol/L
same,SHBG LSM % CFB,Resmetirom 100 mg OL,182.6%
same,SHBG LSM CFB,Resmetirom 100 mg OL,60.3 nmol/L
same,Testosterone (female) LSM CFB,Resmetirom 100 mg OL,0.1 µg/L
same,Testosterone (male) LSM CFB,Resmetirom 100 mg OL,2.8 µg/L
